# From patent US20220226270A1, “VERY-LONG-CHAIN POLYUNSATURATED FATTY ACIDS, ELOVANOID HYDROXYLATED DERIVATIVES, AND METHODS OF USE” (Board of Supervisors of Louisiana State University and …, priority 2019, published 2022)
# Assays:
# ARPE-19 cells under UOS = experiment: Western blot of pro-survival and pro-apoptotic proteins in ARPE-19 cells under UOS; assay type: cell-based, human; conditions: for Iduna expression (VLC-PUFA): RPE cells under UOS (FIG. 7D); for SIRT1 expression (VLC-PUFA): RPE under UOS (FIG. 7C); for Bax protein / Bcl-2 protein / Bcl-xL protein / Bid protein / Bim protein: Western blot, UOS; for Prohibitin (type-1) expression (VLC-PUFA): concentration-dependent, 100 and 250 nM (FIG. 7J); for Iduna expression (ELV): 200 nM; for Sirtuin1 (SIRT1) expression (ELV): dose-dependent, 100-200 nM
# Procedure: ARPE19 cells at 75-80% confluence (72 h growth in DMEM/F12+10% FBS) in 6-well plates were serum-starved for 8 h before exposure. The serum-starved cells were treated with TNF-α (Sigma-Aldrich, St. Louis, Mo.) (10 ng/ml) and H2O2 (600 μM) to induce oxidative stress and challenged with increasing concentrations (50-500 nM) of VLC-PUFA (C32:6n3 and C34:6n3) simultaneously with oxidative stress for 16 h (apoptosis) and 6 h (Western-blot) before detection of apoptosis and harvesting for protein analysis. In some experiments, DHA at a concentration of 100 nM and 15-LOX-1 inhibitor PD146176 at a concentration of 1 μM was added to treat the RPE cells under stress. Cell extracts were made and protein concentrations adjusted by Bio-Rad (Hercules, Calif.) protein reagent and used for Western blot analysis.
# Analysis of Proteins: Bcl-2 family proteins, SIRT1 and Proinhibitin (type-1), and Iduna proteins were analyze by Western blot analysis. In brief, 20-25 μg equivalents of each cell extracts were subject to electrophoresis on a 4-12% gel (Promega) at 125 V for 2 h. The proteins were transferred to nitrocellulose membrane by I-blot transfer apparatus. The membranes were subjected to treatment with primary antibodies specific for Bcl-2, Bcl-xL, Bax, Bid, Bim, SIRT1 and Prohibitin (type-1) (Santa Cruz Biotechnology) and Iduna antibody (Neuro-Mab Lab, UCLA, Los Angeles, Calif.) overnight at 4° C. and probed for 45 mins with secondary antibody, goat anti-mouse Ig:horseradish peroxidase, and horseradish peroxidase-conjugated anti-biotin antibody, and then proteins were evaluated by using an ECL kit (Amersham).
# [1] = system: Sprague-Dawley rats, middle cerebral artery occlusion (MCAo); experiment: Experimental ischemic stroke, 2 h middle cerebral artery occlusion (MCAo); assay type: in vivo, rat; conditions: for reduction of total lesion volume compared to CSF-treated group: T2WI on day 7, 5 μg/50 μl into right lateral ventricle 1 h after 2 h of MCAo; for IgG staining intensity compared with the CSF-treated group / IgG staining in the cortex: at 7 days; for IgG staining intensity compared with the CSF-treated group: ipsilateral hemisphere; for IgG immunoreactivity in cortex, subcortex and whole hemisphere (total): versus the vehicle group (FIG. 22B)
# Procedure: Middle cerebral artery occlusion and cannula implantation into the right lateral ventricle: Male Sprague-Dawley rats (Charles River Lab., Wilmington, Mass.) weighing 280-340 g were fasted overnight but allowed free access to water. Atropine sulfate (0.5 mg/kg, i.p.) was injected 10 mins before anesthesia. Anesthesia was induced with 3% isoflurane in a mixture of 70% nitrous oxide and 30% oxygen. All rats were orally intubated and mechanically ventilated. During ventilation, the animals were paralyzed with pancuronium bromide (0.6 mg/kg, i.p.). The catheters were implanted into the right femoral artery and vein for the blood sampling and infusion of drug. Serial analyses of arterial blood gases, plasma glucose, arterial blood pressure and heart beating rate were conducted before and during surgical procedure. Rectal (CMA/150 Temperature Controller, CMA/Microdialysis AB, Stockholm, Sweden) and cranial (temporalis muscle; Omega Engineering, Stamford, Conn.) temperatures were closely monitored before, during and after MCAo. Rectal temperature and body weight were monitored daily until sacrifice.
# Rats underwent 2 h of right middle cerebral artery occlusion (MCAo) by an intraluminal-filament. In brief, the right common carotid artery (CCA) bifurcation was exposed through a midline neck incision and the occipital artery branches of the external carotid artery were isolated, ligated and dissected. After careful isolation of the internal carotid artery (ICA), a 3-0 monofilament coated with poly-L-lysine was advanced through the ICA to the MCA until mild resistance was felt. The neck incision was closed with a silk suture and the animals were then allowed to recover. After 2 h of MCAo, rats were re-anesthetized with the same anesthetic combination. Temperature probes were re-inserted, and intraluminal sutures were carefully removed. The animals given free access to food and water for 7 days.
# Thirty minutes after suture removal, a brain infusion cannula was implanted into the right lateral ventricle for treatment administration in each rat. Rats were anesthetized with 3% isoflurane and were secured to a stereotaxic apparatus with skull leveled between bregma and lambda. A sterile stainless steel cannula (5-mm long) was implanted into the lateral ventricle using the stereotaxic coordinates (0.2 mm caudal to bregma, 2 mm lateral to midline, and 5 mm below the dura). Cannulas were removed after treatment was completed.
# Treatment: Elovanoids (ELV) as sodium salts (Na) or methyl esters (Me) were dissolved in artificial cerebral spinal fluid (CSF) and administered into right lateral ventricle 1 hour after 2 h of MCAo. The following ELVs were used: ELV-N32-Na, ELV-N32-Me, ELV-N34-Na and ELV-N34-Me (5 μg/50 μl) or CSF (50 μl). All treatments were administered by a researcher blinded to the treatment groups.
# Neurological/Behavioral Tests: Behavioral tests were performed by an observer blinded to the treatment groups at 60 mins (during MCAo) and then on days 1, 2, 3 and 7 after MCAo. The battery consisted of two tests that have been used previously to evaluate various aspects of neurologic function: (1) the postural reflex test, to examine upper body posture while the animal is suspended by the tail; and (2) the forelimb placing test, to examine sensorimotor integration in forelimb placing responses to visual, tactile and proprioceptive stimuli. Neurological function was graded on a scale of 0-12 (normal score=0, maximal score=12).
# Magnetic resonance imaging (MRI) acquisition and analysis of total lesion, core and penumbra volumes: High resolution ex vivo MRI was performed on 4% paraformaldehyde-fixed brains on day 7 using an 11.7T Bruker Advance 8.9 cm horizontal bore instrument equipped with an 89 mm (ID) receiver coil (Bruker Biospin, Billerica, Mass.). T2 weighted images (T2WI), diffusion weighted images (DWI), 3D volumes, and apparent diffusion coefficient (ADC) maps were collected. T2 and ADC maps were computed from T2WI and DWI, respectively. […]
SMILES,Iduna expression (VLC-PUFA) (ARPE-19 cells under UOS),SIRT1 expression (VLC-PUFA) (ARPE-19 cells under UOS),Bax protein (ARPE-19 cells under UOS),Bcl-2 protein (ARPE-19 cells under UOS),Bcl-xL protein (ARPE-19 cells under UOS),Bid protein (ARPE-19 cells under UOS),Bim protein (ARPE-19 cells under UOS),Prohibitin (type-1) expression (VLC-PUFA) (ARPE-19 cells under UOS),reduction of total lesion volume compared to CSF-treated group [1],IgG staining intensity compared with the CSF-treated group [1],Iduna expression (ELV) (ARPE-19 cells under UOS),relative potency in upregulating SIRT1 (ARPE-19 cells under UOS; UOS RPE cells),Sirtuin1 (SIRT1) expression (ELV) (ARPE-19 cells under UOS),IgG staining in the cortex [1],"IgG immunoreactivity in cortex, subcortex and whole hemisphere (total) [1]"
"CC/C=C\C/C=C\C/C=C\C/C=C\C/C=C\C/C=C\CCCCCCCCCCCCC(=O)O [32:6n3, (14Z,17Z,20Z,23Z,26Z,29Z)-dotriaconta-14,17,20,23,26,29-hexaenoic acid]",upregulation,upregulation,down regulated,upregulate,upregulate,down regulated,down regulated,upregulation,,,,,,,
"CC/C=C\C/C=C\C/C=C\C/C=C\C/C=C\C/C=C\CCCCCCCCCCCCCCC(=O)O [34:6n3, (16Z,19Z,22Z,25Z,28Z,31Z)-tetratriaconta-16,19,22,25,28,31-hexaenoic acid]",upregulation,upregulation,down regulated,upregulate,upregulate,down regulated,down regulated,upregulation,,,,,,,
"CC/C=C\C[C@H](O)\C=C/C=C/C=C/[C@H](O)C/C=C\C/C=C\CCCCCCCCCCCCC(=O)OC [ELV-N32-Me, methyl (14Z,17Z,20R,21E,23E,25Z,27S,29Z)-20,27-dihydroxydotriaconta-14,17,21,23,25,29-hexaenoate]",,,,,,,,,56%,similar,,,,,
"CC/C=C\C[C@H](O)\C=C/C=C/C=C/[C@H](O)C/C=C\C/C=C\CCCCCCCCCCCCC(=O)[O-].[Na+] [ELV-N32-Na, sodium (14Z,17Z,20R,21E,23E,25Z,27S,29Z)-20,27-dihydroxydotriaconta-14,17,21,23,25,29-hexaenoate]",,,,enhanced the abundance,enhanced the abundance,,,,60%,similar,enhanced,more potent than ELV-N34-Na,upregulate,,
"CC/C=C\C[C@H](O)\C=C/C=C/C=C/[C@H](O)C/C=C\C/C=C\CCCCCCCCCCCCCCC(=O)OC [ELV-N34-Me, methyl (16Z,19Z,22R,23E,25E,27Z,29S,31Z)-22,29-dihydroxytetratriaconta-16,19,23,25,27,31-hexaenoate]",,,,,,,,,91%,,,,,significantly less IgG staining,significantly reduced
"CC/C=C\C[C@H](O)\C=C/C=C/C=C/[C@H](O)C/C=C\C/C=C\CCCCCCCCCCCCCCC(=O)[O-].[Na+] [ELV-N34-Na, sodium (16Z,19Z,22R,23E,25E,27Z,29S,31Z)-22,29-dihydroxytetratriaconta-16,19,23,25,27,31-hexaenoate]",,,,enhanced the abundance,enhanced the abundance,,,,99%,,enhanced,,upregulate,significantly less IgG staining,significantly reduced
